Assay results from patent US20230021483A1, “[…] […] METHOD AND CLASSIFICATION OF PHARMACEUTICAL COMPONENTS BY USING TRANSCRIPTOMES” (National Institutes of Biomedical Innovation, Health and …, priority 2016, published 2023).

Tested on: adjuvant-associated biological themes in LV, SP, LN
Details: LV, ID
Procedure, shortened: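 Per-mouse whole-organ transcriptomes; genes with eij/ei(c)>2.0 tested for theme enrichment via TargetMine (GO, KEGG, Reactome, others), Fisher's exact test, Holm-Bonferroni correction. Themes shared by all three mice kept at p<0.05, using the smallest p. Score per adjuvant-associated term = Σ−log(p) of matching themes.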

Substance: Poly_IC
- IFN alpha, GO annotation line 1 of 5: 13.3
- IFN alpha, GO annotation line 2 of 5: 4.7
- IFN alpha: cellular response to interferon-alpha: 4.95
- IFN alpha: positive regulation of interferon-alpha production: 5.95
- IFN alpha: regulation of interferon-alpha production: 5.3
- IFN beta: cellular response to interferon-beta: 17.2
- IFN beta: interferon-beta production: 9.35
- IFN beta: positive regulation of interferon-beta production: 8.94
- IFN beta: regulation of interferon-beta production: 7.54
- IFN beta: response to interferon-beta: 23
- IFN gamma: cellular response to interferon-gamma: 10.5
- IFN gamma: interferon-gamma production: 5.43
- IFN gamma: regulation of interferon-gamma production: 5.32
- IFN gamma: response to interferon-gamma: 22.3
- NF-kappa B signaling pathway, GO annotation line 1 of 4: 18
- NF-kappa B signaling pathway, GO annotation line 2 of 4: 13.5
- NF-kappa B signaling pathway, GO annotation line 3 of 4: 8.57
- NF-kappa B signaling pathway, GO annotation line 4 of 4: 9.04
- TNF signaling pathway: 22.1
- adaptive immune response, GO annotation line 1 of 5: 11.9
- adaptive immune response, GO annotation line 2 of 5: 13
- adaptive immune response, GO annotation line 3 of 5: 7.16
- adaptive immune response, GO annotation line 4 of 5: 6.84
- adaptive immune response, GO annotation line 5 of 5: 0
- apoptosis, GO annotation line 1 of 8: 15.7
- apoptosis, GO annotation line 2 of 8: 14.8
- apoptosis, GO annotation line 3 of 8: 12.4
- apoptosis, GO annotation line 4 of 8: 7.32
- apoptosis, GO annotation line 5 of 8: 3.59
- apoptosis, GO annotation line 6 of 8: 7.04
- apoptosis, GO annotation line 7 of 8: 4.79
- apoptosis, GO annotation line 8 of 8: 0
- cell death, GO annotation line 1 of 9: 22.6
- cell death, GO annotation line 2 of 9: 17.8
- cell death, GO annotation line 3 of 9: 18.1
- cell death, GO annotation line 4 of 9: 15.4
- cell death, GO annotation line 5 of 9: 15.6
- cell death, GO annotation line 6 of 9: 4.25
- cell death, GO annotation line 7 of 9: 3.46
- cell death, GO annotation line 8 of 9: 4.38
- cell death, GO annotation line 9 of 9: 4.89
- chemokine, GO annotation line 1 of 4: 6.25
- chemokine, GO annotation line 2 of 4: 7.84
- chemokine, GO annotation line 3 of 4: 9.13
- chemokine, GO annotation line 4 of 4: 9
- chemotaxis, GO annotation line 1 of 11: 20.7
- chemotaxis, GO annotation line 2 of 11: 6.87
- chemotaxis, GO annotation line 3 of 11: 22
- chemotaxis, GO annotation line 4 of 11: 13.1
- chemotaxis, GO annotation line 5 of 11: 6.8
- chemotaxis, GO annotation line 6 of 11: 7.42
- chemotaxis, GO annotation line 7 of 11: 7.6
- chemotaxis, GO annotation line 8 of 11: 8.31
- chemotaxis, GO annotation line 9 of 11: 9.92
- chemotaxis, GO annotation line 10 of 11: 6.5
- chemotaxis, GO annotation line 11 of 11: 3.15
- cytokine, GO annotation line 1 of 17: 66.1
- cytokine, GO annotation line 2 of 17: 48.5
- cytokine, GO annotation line 3 of 17: 42.3
- cytokine, GO annotation line 4 of 17: 12.1
- cytokine, GO annotation line 5 of 17: 45.6
- cytokine, GO annotation line 6 of 17: 43.5
- cytokine, GO annotation line 7 of 17: 20.9
- cytokine, GO annotation line 8 of 17: 7.3
- cytokine, GO annotation line 9 of 17: 8.4
- cytokine, GO annotation line 10 of 17: 34.3
- cytokine, GO annotation line 11 of 17: 12.6
- cytokine, GO annotation line 12 of 17: 4.18
- cytokine, GO annotation line 13 of 17: 15
- cytokine, GO annotation line 14 of 17: 14.5
- cytokine, GO annotation line 15 of 17: 3.4
- cytokine, GO annotation line 16 of 17: 3.66
- cytokine, GO annotation line 17 of 17: 5.29
- defense response, GO annotation line 1 of 11: 90.6
- defense response, GO annotation line 2 of 11: 57.5
- defense response, GO annotation line 3 of 11: 41.3
- defense response, GO annotation line 4 of 11: 48.9
- defense response, GO annotation line 5 of 11: 15.8
- defense response, GO annotation line 6 of 11: 6.93
- defense response, GO annotation line 7 of 11: 4.67
- defense response, GO annotation line 8 of 11: 25.8
- defense response, GO annotation line 9 of 11: 6.75
- defense response, GO annotation line 10 of 11: 4.62
- defense response, GO annotation line 11 of 11: 0
- immune response, GO annotation line 1 of 8: 79.8
- immune response, GO annotation line 2 of 8: 35.5
- immune response, GO annotation line 3 of 8: 39.5
- immune response, GO annotation line 4 of 8: 23.2
- immune response, GO annotation line 5 of 8: 20.5
- immune response, GO annotation line 6 of 8: 23.7
- immune response, GO annotation line 7 of 8: 3.8
- immune response, GO annotation line 8 of 8: 4.58
- inflammatory response, GO annotation line 1 of 5: 32.2
- inflammatory response, GO annotation line 2 of 5: 14.4
- inflammatory response, GO annotation line 3 of 5: 5.99
- inflammatory response, GO annotation line 4 of 5: 0
- inflammatory response, GO annotation line 5 of 5: 0
- innate immune response, GO annotation line 1 of 6: 59.5
- innate immune response, GO annotation line 2 of 6: 40.7
- innate immune response, GO annotation line 3 of 6: 27.7
- innate immune response, GO annotation line 4 of 6: 23.3
- innate immune response, GO annotation line 5 of 6: 18.5
- innate immune response, GO annotation line 6 of 6: 7.74
- interleukin-6: interleukin-6 production: 9.62
- interleukin-6: positive regulation of interleukin-6 production: 5.06
- interleukin-6: regulation of interleukin-6 production: 10.2
- interleukin-12: interleukin-12 production: 6.82
- interleukin-12: positive regulation of interleukin-12 production: 4.28
- interleukin-12: regulation of interleukin-12 production: 7.39
- migration, GO annotation line 1 of 10: 22.1
- migration, GO annotation line 2 of 10: 6.99
- migration, GO annotation line 3 of 10: 23.4
- migration, GO annotation line 4 of 10: 18.5
- migration, GO annotation line 5 of 10: 9
- migration, GO annotation line 6 of 10: 9.34
- migration, GO annotation line 7 of 10: 8.14
- migration, GO annotation line 8 of 10: 7.59
- migration, GO annotation line 9 of 10: 6.05
- migration, GO annotation line 10 of 10: 3.46
- stress, GO annotation line 1 of 3: 58.8
- stress, GO annotation line 2 of 3: 40.8
- stress, GO annotation line 3 of 3: 5.39
- wounding, GO annotation line 1 of 3: 16.7
- wounding, GO annotation line 2 of 3: 14.8
- wounding, GO annotation line 3 of 3: 9.8
